Experiments:
pBMO promoter activity = type: cell-based, E. coli; conditions: for activation of pBMO-promoter expression by BmoR in response to alcohol: E. coli, pBMO::GFP reporter
Experimental: A pBMO-promoter::GFP reporter cassette is constructed. The pBMO-promoter comprises the nucleotide sequences from the −425 nucleotide to the +11 nucleotide. This section of the pBMO-promoter comprises the upstream activating sequence (UAS) to which BmoR binds. A deletion analysis is performed whereby the upstream sequence is deleted to produce reporter cassettes comprising of the −325 nucleotide to the +1 nucleotide fragment, the −225 nucleotide to the +1 nucleotide fragment, the −175 nucleotide to the +1 nucleotide fragment, the +1 nucleotide to the +1 nucleotide fragment, and no fragment (FIG. 3). The various reporter cassettes are introduced into an E. coli. also containing the bmoR gene operatively linked to the pBAD promoter or a pZT promoter. The pBAD promoter is taught by Guzman, L. M., et al., “Tight regulation, modulation, and high-level expression by vectors containing the arabinose PBAD promoter”, J. Bacteriol. 177(14):4121-4130 (1995), which is incorporated by reference.
Using the pBMO-promoter reporter cassette comprising of the −325 nucleotide to the +1 nucleotide fragment, the E. coli strain is analyzed for the optimum temperature for pBMO promoter activity using different concentrations of butan-1-ol.
Using the pBMO-promoter reporter cassette comprising of the −325 nucleotide to the +1 nucleotide fragment, the E. coli strain is analyzed for pBMO promoter activity in response to different alcohols: butan-1-ol (FIG. 5), ethanol (FIG. 6), 1-propanol (FIG. 6), 2-propanol (FIG. 6), pentanol (FIG. 5), and hexanol (FIG. 5). From an overnight culture harboring a plasmid containing GFP under control of pBMO and BmoR under control of pZT 5 mL cultures of rich media were inoculated (1.5% v/v). Cultures are grown at 37° C., 200 rpm, until reaching an optical density (OD600) of 0.25 and induced with 57.5 ng/mL anhydrotetracyline. The cultures are than grown at 25° C., 200 rpm, until reaching an OD600=0.80 at which point they are diluted to an OD600=0.20 in media containing a range of alcohol concentrations. The culture tubes are sealed with parafilm and grown at 25° C., 200 rpm, for 18 hours. 150 μl culture samples are quantified for GFP fluorescence on a 96-well plate reader.

[1] = system: E. coli cultures harboring the butanol biosensor controlling TetA expression; conditions: media with multiple concentrations of butanol and tetracycline; N=4
Experimental: The BmoR transcription factor is used to construct a genetic selection for the presence of butanol in the media.
Maximal growth rates are calculated by fitting curves to the Gompertz equation. […] N=4, mean±standard deviation.

[2] = system: 300-nucleotide DNA fragment upstream of the pBMO-promoter; test: Gel mobility shift assay; type: binding; conditions: purified His-tagged BmoR, DIG Gel Shift Kit
Excerpt: A DIG Gel Shift Kit (Roche Applied Science, Indianapolis, Ind.) is used according to the manufacturer's instructions.

Molecule	activation of pBMO-promoter expression by BmoR in response to alcohol (pBMO promoter activity)	other results
CCCCCCO [1-hexanol]	capable of activating pBMO-promoter expression	
CCCCCO [1-pentanol]	capable of activating pBMO-promoter expression	
CCCO [1-propanol]	capable of activating pBMO-promoter expression	
CC(C)O [2-propanol]	capable of activating pBMO-promoter expression	
CCC(C)O (stereo not drawn) [butan-1-ol]	capable of activating pBMO-promoter expression	activation of the reporter gene (optimum condition) (pBMO promoter activity; cultured at 25° C. with 0.5% of butan-1-ol by volume, compared to the other conditions tested): the activation of the reporter gene is the strongest; butanol dependent growth (maximal growth rate) [1]: strong butanol dependent growth
CCO [ethanol]	capable of activating pBMO-promoter expression	
BmoR: σ54-dependent transcription factor (activator protein) of P. butanovora, SEQ ID NO: 4, activated by C2-C8 alcohols (protein, listed as Pseudomonas butanova) MSKMQEFARLETVASMRRAVWDGNECQPGKVADVVLRSWTRCRAEGVVPNARQEFDPIPRTALDETVEAKRALILAAEPVVDALMEQMNDAPRMIILNDERGVVLLNQGNDTLLEDARRRAVRVGVCWDEHARGTNAMGTALAERRPVAIHGAEHYLESNTIFTCTAAPIYDPFGEFTGILDISGYAGDMGPVPIPFVQMAVQFIENQLFRQTFADCILLHFHVRPDFVGTMREGIAVLSREGTIVSMNRAGLKIAGLNLEAVADHRFDSVFDLNFGAFLDHVRQSAFGLVRVSLYGGVQVYARVEPGLRVPPRPAAHARPPRPAPRPLDSLDTGDAAVRLAIDRARRAIGRNLSILIQGETGAGKEVFAKHLHAESPRSKGPFVAVNCAAIPEGLIESELFGYEEGAFTGGRRKGNIGKVAQAHGGTLFLDEIGDMAPGLQTRLLRVLQDRAVMPLGGREPMPVDIALVCATHRNLRSLIAQGQFREDLYYRLNGLAISLPPLRQRSDLAALVNHILFQCCGGEPHYSVSPEVMTLFKRHAWPGNLRQLHNVLDAALAMLDDGHVIEPHHLPEDFVMEVDSGLRPIEEDGSTAAHRARQPASGSGPAKKLQDLALDAIEQAIEQNEGNISVAARQLGVSRTTIYRKLRQLSPTGCHRPAHWSQSRIGT		binding of BmoR upstream of the pBMO-promoter (band shift) [2]: A band shift is observed
